Assay results taken from ChEMBL document CHEMBL1201862, “PubChem BioAssay data set” (2004).
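In this assay, cells in 96-well plates receive the compound at five concentrations for 48 hours. Endpoints are linearly interpolated between the surrounding concentrations. The concentration for 50% growth inhibition is given as GI50.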 Calls of active or inactive are those of the source. Rule as the data show it: active = GI50 up to about 1.1 µM and inactive = higher.

Tests used:
Experiment in all cases: NCI-60 cell line screen, 48 h
DLD-1 = tested on: DLD-1
DMS-273 = tested on: DMS-273
DMS-114 = tested on: DMS-114
RXF 631 = tested on: RXF 631
LXFL 529 = tested on: LXFL 529
HOP-18 = tested on: HOP-18
BT-549 = tested on: BT-549
PC-3 = tested on: PC-3
MDA-MB-231 = tested on: MDA-MB-231

Measured: GI50

CC1=C(C(=O)CC(=O)C(=O)Nc2ccccc2C(F)(F)F)Sc2ccccc2N1
inactive: DLD-1 76 µM | DMS-273 40.2 µM | DMS-114 32.6 µM | RXF 631 86.5 µM | LXFL 529 35.7 µM

CC12C/C(=C\c3ccccc3)C(=O)C3C1CCCC32
inactive: DLD-1 79.3 µM | DMS-273 42.6 µM | HOP-18 > 100 µM | DMS-114 41.6 µM | RXF 631 > 100 µM | LXFL 529 56.9 µM

CC1(C)C2C/C(=C\c3ccccc3)C(=O)C1C2 (configuration not stated)
inactive: DLD-1 83.4 µM | DMS-273 > 100 µM | DMS-114 68.1 µM | RXF 631 > 100 µM | LXFL 529 > 100 µM

O=C(CC1(O)C(=O)Nc2c(Cl)cc(Cl)cc21)c1cccc2ccccc12 (configuration not stated)
inactive: DLD-1 15.8 µM | DMS-273 13.7 µM | HOP-18 17.9 µM | DMS-114 17.9 µM | RXF 631 18.1 µM | LXFL 529 15.3 µM

O=c1c2cc(Br)cc(Br)c2nc(CCCl)n1CCO
inactive: DLD-1 > 100 µM | DMS-114 42.4 µM | RXF 631 > 100 µM | LXFL 529 77.6 µM

CC(=O)OCCOCNC(=S)N/N=C/c1ccc(Br)s1
inactive: DLD-1 > 81.8 µM | DMS-273 > 87.7 µM | HOP-18 > 100 µM | DMS-114 33.3 µM | LXFL 529 > 70.3 µM

CS(=O)(=O)N(CCC#N)c1ccc(/C=N/NC(=O)CC(=O)Nc2cccc(Cl)c2)cc1
inactive: DLD-1 > 100 µM | DMS-273 > 100 µM | HOP-18 > 100 µM | DMS-114 > 100 µM | LXFL 529 > 100 µM

Cc1cc(NS(=O)(=O)c2ccc(Nc3c4ccccc4nc4c(C(=O)N5CCN(CCO)CC5)cccc34)cc2)no1
inactive: DLD-1 > 100 µM | DMS-273 > 100 µM | HOP-18 > 100 µM | DMS-114 > 100 µM | LXFL 529 > 100 µM

CCN(CC)CCOc1ccc(/C=C(\C#N)c2ccc(OCCN(CC)CC)cc2)cc1
inactive: DLD-1 19.5 µM | DMS-273 13.6 µM | HOP-18 25.6 µM | DMS-114 10.8 µM | LXFL 529 16.1 µM

N#Cc1cc([N+](=O)[O-])ccc1NC(=O)C(=O)Nc1n[nH]c(N)n1
inactive: DLD-1 > 100 µM | DMS-273 > 100 µM | DMS-114 > 100 µM | RXF 631 > 100 µM | LXFL 529 > 100 µM

CCOC(=O)C/C(N)=C(\C#N)C(=O)OCC
inactive: DLD-1 > 100 µM | DMS-273 > 100 µM | HOP-18 > 100 µM | DMS-114 > 100 µM | RXF 631 > 100 µM | LXFL 529 > 100 µM

COc1ccc(C)cc(O)c1=O
inactive: DLD-1 35.1 µM | DMS-273 44.7 µM | HOP-18 40.9 µM | DMS-114 14 µM | LXFL 529 16.2 µM

Nc1ccccc1C(=O)/C=C/c1ccccc1O
inactive: DLD-1 47.2 µM | HOP-18 8.34 µM | DMS-114 29.8 µM | RXF 631 55.8 µM | LXFL 529 39.2 µM

CC(=O)NC(CCCNCc1ccccc1)C(=O)NCc1ccccc1 (configuration not stated)
inactive: DLD-1 > 100 µM | DMS-273 > 100 µM | DMS-114 > 100 µM | RXF 631 > 100 µM | LXFL 529 > 100 µM

O=C(C=C1SCCS1)/C=C\c1ccc(Cl)cc1
inactive: DLD-1 > 100 µM | DMS-273 99.3 µM | RXF 631 > 100 µM | LXFL 529 69.7 µM

CS(=O)(=O)c1nc(N)nc2nc[nH]c12
inactive: DLD-1 > 100 µM | DMS-273 > 100 µM | HOP-18 > 100 µM | DMS-114 > 100 µM | LXFL 529 > 100 µM

CC(=O)O[C@H]1CCC2[C@@H]3CC[C@]4(C)CC(=O)C=C[C@]4(C)C3CC[C@@]21C (some centres not stated)
inactive: DLD-1 22.6 µM | BT-549 16.4 µM | DMS-273 17.7 µM | HOP-18 > 38.8 µM | DMS-114 11.3 µM | PC-3 29.4 µM | MDA-MB-231 31.8 µM | RXF 631 > 50.9 µM | LXFL 529 14.8 µM

Cn1c(=O)c2ccc(-c3ccc(Br)cc3)nc2n(C)c1=O
inactive: DLD-1 > 100 µM | DMS-273 > 100 µM | HOP-18 > 100 µM | DMS-114 > 100 µM | RXF 631 > 100 µM | LXFL 529 > 100 µM

COc1cc([C@@H]2c3cc4c(cc3[C@@H](NCc3ccccc3F)C3COC(=O)[C@@H]32)OCO4)cc(OC)c1O (some centres not stated)
inactive: DLD-1 11.9 µM | DMS-273 1.21 µM | HOP-18 > 100 µM | DMS-114 3.45 µM | RXF 631 2.18 µM | LXFL 529 11.3 µM

CCCCCCCCCCCCCCCCOP(=O)(O)Oc1ccc(/C=C\c2ccc(OP(=O)(O)OCCCCCCCCCCCCCCCC)cc2)cc1
inactive: DLD-1 > 100 µM | DMS-273 25.1 µM | HOP-18 70.3 µM | DMS-114 10.1 µM | RXF 631 48.5 µM | LXFL 529 28.3 µM

[N-]=[N+]=NC(CCl)c1cn([C@H]2C[C@H](O)[C@@H](CO)O2)c(=O)[nH]c1=O (some centres not stated)
inactive: DLD-1 > 100 µM | DMS-273 > 100 µM | HOP-18 > 100 µM | DMS-114 > 100 µM | LXFL 529 > 100 µM

CCN(CC)CCNc1ccc2nnn3c4ccc([N+](=O)[O-])cc4c(=O)c1c23
inactive: DLD-1 3.93 µM | BT-549 > 100 µM | DMS-273 5.16 µM | HOP-18 2.8 µM | DMS-114 8.53 µM | PC-3 5.26 µM | MDA-MB-231 3.94 µM | RXF 631 4.11 µM | LXFL 529 4.98 µM
